Reference: patent US20230381142A1, “ANTILEISHMANIAL COMPOUNDS, COMPOSITIONS AND USE THEREOF” (TRUSTEES OF BOSTON UNIVERSITY, priority 2022, published 2023)
Like-named read-outs stand apart in the source and are kept apart here.

How the values were obtained:
[1] = tested on: L. donovani intracellular amastigotes in B10R cells; assay: UCSD L. donovani infection assay (Assay Conditions D); type: cell-based; settings: B10R cells; for L. donovani amastigotes EC75 (B10R cells): footnote d; for EC50: Leishmania donovani, values marked d, read-out: L. donovani amastigotes EC50 (B10R cells)
Summary of the method: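 B10R cells (300/well) infected with stationary-phase L. donovani WT promastigotes at 20 parasites/cell in DMEM high-glucose, 5% FBS, with compounds 72 h at 37° C., 5% CO2. Formaldehyde-fixed, DAPI-stained, imaged by high-content microscopy; 10-point 2-fold dilutions (screen at 10 μM) gave EC50 and host CC50.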

[2] = UCSD infection assay, host cell cytotoxicity (CC50); type: cell-based; settings: mouse, B10R host cells infected with L. donovani
Protocol: (§1) Assay Conditions D: B10R cells (CVCL_0155) were seeded at 300 cells/well, and L. donovani WT promastigotes in stationary phase (7th day after passage) were added at 6,000 parasites/well (ratio of 20 parasites/cell). Both cells and parasites were seeded in DMEM High-Glucose medium (Gibco, cat. no. 11995065) containing 5% Fetal Bovine Serum (Sigma-Aldrich, cat. no. F2442) and 1% Penicillin-Streptomycin (Gibco, cat. no. 15140122). Cells and parasites were incubated in the presence of the compounds for 72 h at 37° C. and 5% C02. Plates were then fixed with 4% formaldehyde solution for at least 1 h, then washed with 1×PBS and stained with 5 μg/mL DAPI. Plates were read using an ImageXpress microscope (Molecular Devices) and analyzed by MetaXpress software (Molecular Devices) using a custom module optimized for this assay. […] Compounds were tested in a 10-point 2-fold serial dilution in 3 technical replicates, and 2 biological replicates. After 72 h, plates were fixed and stained with DAPI as described above. Images were acquired on an ImageXpress microscope, and analyzed using the MetaXpress custom module.
as §1, with “Compounds were obtained as 0.2 μmoles of dried film for primary single point screening. Each compound was diluted in DMSO to 10 μM final testing concentration. These compounds were tested in 2 biological replicates. The compounds were pre-spotted onto 384-well assay plates in single concentration.” for “Assay Conditions D:”, “CO2.” for “C02.”, “module. The DRCs were plotted, half-effective concentration (EC50) and half-cytotoxic concentration (CC50) were calculated using GraphPad Prism Software, version 6.05 (GraphPad Software, San Diego, CA).” for “module.”

[3] = tested on: L. donovani intracellular amastigotes infecting THP-1 macrophages; assay: GSK intramacrophage L. donovani assay (LD AMMAC, inMac; Assay Conditions C); type: cell-based; settings: Leishmania donovani
Summary of the method: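 L. donovani amastigotes within THP-1 macrophages; EC50 based on average intracellular amastigotes per infected cell (AMMAC). Infected-cell percentage (INFCELL) and host-cell number (MAC) also read, the latter as toxicity output.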

[4] = GSK inMac assay, host cell toxicity readout (LD MAC); type: cell-based, human; settings: human
Summary of the method: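 Intramacrophage L. donovani assay in THP-1 macrophages; host toxicity taken from host cell number per well, giving MAC EC50. Run alongside amastigote-per-cell and infected-cell readouts in the same wells.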

[5] = tested on: L. braziliensis (strain BA788) in J774 cells; assay: J774 luciferase infection assay (Assay Conditions E); type: cell-based, Leishmania braziliensis
Protocol: Assay Conditions E: J774 cells (ATCC J774A.1 were grown in DMEM supplemented with 10% Fetal Bovine Serum (FBS) and 1% Penicillin-Streptomycin at 37° C. in 5% CO2. Leishmania parasites expressing luciferase and GFP were grown as described in Front. Cell. Infect. Microbiol (2019) 9:237. J774 cells were seeded in microwell plates at 3×10^5 cells/mL density. Cells were washed with PBS and incubated with complete DMEM medium containing stationary phase Leishmania promastigotes (L. major: strain Friedlin; L. braziliensis, strain BA788) at a 1:10 parasite-cell ratio for 24 h. Cells were washed with PBS. Cells and compounds were incubated for 48 h at 37° C. and 5% C02. Compounds were tested in 8-point 2-fold serial dilution in 4 technical replicates, and 2 biological replicates. After 48 h, OneTiterGlo (Promega) (100 μl) was added to each well. Plates were incubated for 15 min and bioluminescence was measured using a plate reader (Molecular Devices). Effective concentration inducing 75% activity (EC75) was calculated using GraphPad Prism Software (version 9.0).

[6] = THP-1 cells, values marked c, read-out: L. donovani amastigotes EC50 (THP-1 cells)
[7] = footnote c, read-out: THP-1 Host Cell CC50
[8] = values marked c: THP-1 cells, read-out: L. donovani amastigotes EC50 (μM, THP-1 or B10R cells)

| SMILES | L. donovani amastigotes EC75 (B10R cells) [1] [µM] | CC50 [4, 7] [µM] | L. donovani amastigotes EC75 (μM, B10R cells) [1] [µM] | L. braziliensis amastigotes EC75 (μM, J774 cells) [5] [µM] | other results |
| --- | --- | --- | --- | --- | --- |
| CC(C)Cc1n[nH]c2c1C(c1ccc(F)cc1)N(c1ccc(N(C)C)cc1)C2=O (stereo not shown) [CMLD011039] | 0.3 | 39.8 | – | – | CC50 at 72 h ([2]; footnote d): 6.31 µM; EC50 [3, 6]: 1 µM |
| COc1ccc(N2C(=O)c3[nH]nc(CC(C)C)c3C2c2ccccc2Br)cc1F (stereo not shown) [CMLD012217] | 0.5 | 3 | – | – | EC50 [1]: 0.4 µM; CC50 at 72 h ([2]; footnote d): 3.98 µM |
| CC(C)Cc1n[nH]c2c1C(c1c(Cl)cccc1Cl)N(c1ccc(N(C)C)cc1)C2=O (stereo not shown) [CMLD011553] | – | – | 3.0 | – | CC50 at 72 h ([2]; host B10R cells): 5.01 µM; EC50 [3, 8]: 4 µM; CC50 ([4]; host THP-1 cells): 20 µM |
| COc1ccc(N2C(=O)c3[nH]nc(CC(C)C)c3[C@H]2c2ccccc2Br)cn1 [CMLD010977] | – | – | 1.0 | – | CC50 at 72 h ([2]; host B10R cells): 15.8 µM; EC50 [3, 8]: 2 µM; CC50 ([4]; host THP-1 cells): 25.1 µM |
| CC(C)Cc1n[nH]c2c1C(c1ccc(F)cc1Br)N(c1ccc(F)nc1)C2=O (stereo not shown) [BUCMD00650] | – | – | >10 | 9.0 | – |
| CC(C)Cc1n[nH]c2c1C(c1ccc(F)cc1)N(c1ccc3c(c1)OCCO3)C2=O (stereo not shown) [CMLD011101] | 1.2 | 25.1 | – | – | CC50 at 72 h ([2]; footnote d): 15.8 µM; EC50 [3, 6]: 3.2 µM |
| Cc1cc(F)ccc1C1c2c(CC(C)C)n[nH]c2C(=O)N1c1cnn(C(C)C)c1 (stereo not shown) [BUCMD00673] | – | – | >10 | >10 | – |
| CC(C)Cc1n[nH]c2c1C(c1cccc(C(F)(F)F)c1)N(c1ccc3c(c1)OCO3)C2=O (stereo not shown) [CMLD011139] | – | – | >10 | – | CC50 at 72 h ([2]; host B10R cells): 12.6 µM; EC50 [3, 8]: 3.2 µM; CC50 ([4]; host THP-1 cells): 20 µM |
| COc1ccc(N2C(=O)c3[nH]nc(CC(C)C)c3C2c2ccccc2C(F)(F)F)cn1 (stereo not shown) [BUCMD00689] | – | – | >10 | >10 | – |
| COc1ccc(N2C(=O)c3[nH]nc(CC(C)C)c3C2c2ccc(F)cc2Cl)cn1 (stereo not shown) [BUCMD00684] | – | – | >10 | 10.0 | – |
| COc1ccc(N2C(=O)c3[nH]nc(CC(C)C)c3C2c2ccc(Cl)cc2F)cn1 (stereo not shown) [BUCMD00685] | – | – | 1.7 | >10 | – |
| COc1ccc(N2C(=O)c3[nH]nc(CC(C)C)c3C2c2ccccc2OC)cn1 (stereo not shown) [CMLD011567] | 1.2 | > 20 | – | – | EC50 [1]: 1.1 µM; CC50 at 72 h ([2]; footnote d): 20 µM |
| COc1ccc(N2C(=O)c3[nH]nc(CC(C)C)c3C2c2ccc(F)cn2)cc1 (stereo not shown) [CMLD011100] | 4.4 | > 50 | – | – | L. braziliensis amastigotes EC75 (J774 cells) ([5]; footnote e): >10 µM; EC50 [3, 6]: 10 µM |
| C#CCCOc1ccc(C2c3c(CC(C)C)n[nH]c3C(=O)N2c2ccc(OC)cc2)c(Cl)c1 (stereo not shown) [BUCMD00728] | – | – | >10 | >10 | – |
| CC(C)Cc1n[nH]c2c1C(c1ccccc1Br)N(c1ccc(Br)cc1)C2=O (stereo not shown) [CMLD011551] | 0.5 | 5 | – | – | EC50 [1]: 0.4 µM; CC50 at 72 h ([2]; footnote d): 6.31 µM |
| Cc1ccccc1C1c2c(CC(C)C)n[nH]c2C(=O)N1c1ccc(F)nc1 (stereo not shown) [BUCMD00651] | – | – | 6.3 | >10 | – |

| SMILES | L. donovani amastigotes EC75 (B10R cells) [1] [µM] | CC50 [4, 7] [µM] | L. donovani amastigotes EC75 (μM, B10R cells) [1] [µM] | L. braziliensis amastigotes EC75 (μM, J774 cells) [5] [µM] | other results |
| --- | --- | --- | --- | --- | --- |
| COc1ccc(N2C(=O)c3[nH]nc(CC(C)C)c3[C@H]2c2ccc(F)cc2)cc1 [CMLD013629] | – | – | >10 | – | CC50 at 72 h ([2]; host B10R cells): 20 µM; EC50 [3, 8]: 10 µM; CC50 ([4]; host THP-1 cells): 25.1 µM |
| COc1ccc(N2C(=O)c3[nH]nc(CC(C)C)c3C2c2ccc(F)cc2F)cn1 (stereo not shown) [BUCMD00688] | – | – | 3.3 | >10 | – |
| COc1ccc(N2C(=O)c3[nH]nc(CC(C)C)c3C2c2ccccc2F)cn1 (stereo not shown) [BUCMD00691] | – | – | 4.9 | >10 | – |
| CC(C)Cc1n[nH]c2c1C(c1ccccc1Br)N(c1ccc3c(c1)OCC(=O)N3)C2=O (stereo not shown) [CMLD011497] | – | – | 0.9 | – | CC50 at 72 h ([2]; host B10R cells): 6.31 µM; EC50 [3, 8]: 2 µM; CC50 ([4]; host THP-1 cells): 20 µM |
| COc1ccc(N2C(=O)c3[nH]nc(CC(C)C)c3[C@@H]2c2cccc(C(F)(F)F)c2)cn1 [BUCMD00805] | 1.6 | 25.1 | – | – | CC50 at 72 h ([2]; footnote d): 6.31 µM; EC50 [3, 6]: 5 µM |
| CC(C)Cc1n[nH]c2c1C(c1ccc(Br)cc1F)N(c1ccc(F)nc1)C2=O (stereo not shown) [BUCMD00649] | – | – | >10 | >10 | – |
| COc1ccc(N2C(=O)c3[nH]nc(CC(C)C)c3C2c2ccc(C)s2)cc1 (stereo not shown) [CMLD011123] | – | – | 2.5 | – | CC50 at 72 h ([2]; host B10R cells): 15.8 µM; EC50 [3, 8]: 5 µM; CC50 ([4]; host THP-1 cells): 20 µM |
| COc1ccc(N2C(=O)c3[nH]nc(CC(C)C)c3C2c2sccc2C)cn1 (stereo not shown) [BUCMD00690] | – | – | 9.7 | >10 | – |
| Cc1ccc(N2C(=O)c3[nH]nc(CC(C)C)c3C2c2ccc(Br)cc2F)cn1 (stereo not shown) [BUCMD00641] | – | – | >10 | – | CC50 at 72 h ([2]; host B10R cells): 12.6 µM |
| COc1ccc(N2C(=O)c3[nH]nc(CC(C)C)c3C2c2ccccc2C)cn1 (stereo not shown) [BUCMD00687] | – | – | >10 | >10 | – |
| COc1ccc(N2C(=O)c3[nH]nc(CC(C)C)c3C2c2ccc(F)c(F)c2)cn1 (stereo not shown) [BUCMD00692] | – | – | >10 | >10 | – |
| COc1ccc(N2C(=O)c3[nH]nc(CC(C)C)c3C2c2ccccc2OC)cc1F (stereo not shown) [CMLD011566] | 0.4 | 0.3 | – | – | EC50 [1]: 0.4 µM; CC50 at 72 h ([2]; footnote d): 0.316 µM |
| COc1ccccc1C1c2c(CC(C)C)n[nH]c2C(=O)N1c1ccc(Br)cc1 (stereo not shown) [CMLD011549] | 0.3 | 1.1 | – | – | EC50 [1]: 0.2 µM; CC50 at 72 h ([2]; footnote d): 1 µM |
| CC(C)Cc1n[nH]c2c1C(c1ccc(F)cc1F)N(c1ccc(N3CCN(C)CC3)nc1)C2=O (stereo not shown) [BUCMD00722] | – | – | >10 | – | CC50 at 72 h ([2]; host B10R cells): 7.94 µM |
| CC(C)Cc1n[nH]c2c1C(c1ccccc1Cl)N(c1ccc(N(C)C)cc1)C2=O (stereo not shown) [CMLD010920] | 0.3 | 7.3 | – | – | EC50 [1]: 0.3 µM; CC50 at 72 h ([2]; footnote d): 6.31 µM |
